# Assays:
# [1] = tested on: cell extract of Candida utilis ATCC 26,387; assay: Oxidation of secondary alcohols to methylketone by cell extracts of yeasts; type: biochemical; conditions: methanol-grown; cell extract + NAD^+; sec. alcohol to methyl ketone; gas chromatography
# [2] = tested on: Kloeckera sp. Strain A2 (NRRLY-11,420); assay: Oxidation of sec-alcohols to ketones by cell suspensions of yeasts; type: cell-based; conditions: sec-alcohol to methyl ketone
# [3] = tested on: cell extract of Torulopsis sp. strain A1 NRRL-Y-11,419; assay: Oxidation of secondary alcohols to methylketone by cell extracts of yeasts; type: biochemical; conditions: methanol-grown; cell extract + NAD^+; sec. alcohol to methyl ketone; gas chromatography
# [4] = tested on: Torulopsis sp. Strain A1 (NRRLY-11,419); assay: Oxidation of sec-alcohols to ketones by cell suspensions of yeasts; type: cell-based; conditions: sec-alcohol to methyl ketone
# [5] = tested on: cell extract of Kloeckera sp. strain A2 NRRL-Y-11,420; assay: Oxidation of secondary alcohols to methylketone by cell extracts of yeasts; type: biochemical; conditions: methanol-grown; cell extract + NAD^+; sec. alcohol to methyl ketone; gas chromatography
# [6] = tested on: Hansenula polymorpha ATCC 26012; assay: Oxidation of sec-alcohols to ketones by cell suspensions of yeasts; type: cell-based; conditions: sec-alcohol to methyl ketone
# [7] = tested on: cell extract of Pichia sp. NRRL-Y-11,328; assay: Oxidation of secondary alcohols to methylketone by cell extracts of yeasts; type: biochemical; conditions: methanol-grown; cell extract + NAD^+; sec. alcohol to methyl ketone; gas chromatography
# [8] = tested on: Pichia sp. NRRL-Y-11328; assay: Oxidation of sec-alcohols to ketones by cell suspensions of yeasts; type: cell-based; conditions: sec-alcohol to methyl ketone
# [9] = tested on: Candida utilis ATCC 26387; assay: as above; type: cell-based; conditions: sec-alcohol to methyl ketone
# [10] = tested on: Methylobacter chroococcum CRL M6 NRRL B-11,214; assay: Sec. alcohol oxidation by cell suspensions of methanol-grown cells; type: cell-based; conditions: sec. alcohol to methyl ketone
# Source text: (§1) In this example, the procedure of Example 1 was repeated except that a plurality of the methane-utilizing methylotrophic microorganisms of the invention were each aerobically grown in a methanol-containing nutrient medium instead of a methane-containing medium. The nutrients in the medium were the same as indicated in Example 1 except that 0.4% v/v methanol was used as the alcohol dehydrogenase enzyme inducer and major source of carbon and energy for growth. Following growth the cells were harvested and washed as described in Example 1. The resting cells of the induced methanol-grown methylotrophic microorganisms were then contacted with a […] under aerobic conditions in a buffered solution by the procedure described in Example 1.
# [11] = tested on: Methylobacter vinelandii CRL M5Y NRRL B-11,218; assay: as above; type: cell-based; conditions: sec. alcohol to methyl ketone
# Source text: as §1
# [12] = tested on: Methylococcus capsulatus CRL M1 NRRL B-11,219; assay: as above; type: cell-based; conditions: sec. alcohol to methyl ketone
# Source text: as §1
# [13] = tested on: Methylocystis parvus CRL 18 NRRL B-11,204; assay: as above; type: cell-based; conditions: sec. alcohol to methyl ketone
# Source text: as §1
# [14] = tested on: Methylobacterium organophilum CRL 26 NRRL B-11,222; assay: as above; type: cell-based; conditions: sec. alcohol to methyl ketone
# Source text: as §1
# [15] = tested on: Methylomonas methanica CRL M4P NRRL B-11,205; assay: as above; type: cell-based; conditions: sec. alcohol to methyl ketone
# Source text: as §1
# [16] = tested on: Methylosinus trichosporium CRL 15 NRRL B-11,202; assay: as above; type: cell-based; conditions: sec. alcohol to methyl ketone
# Source text: as §1
# [17] = tested on: cell extract of Hansenula polymorpha ATCC 26,012; assay: Oxidation of secondary alcohols to methylketone by cell extracts of yeasts; type: biochemical; conditions: methanol-grown; cell extract + NAD^+; sec. alcohol to methyl ketone; gas chromatography
# [18] = tested on: purified secondary alcohol dehydrogenase from Pichia sp. NRRL Y-11,328; assay: Substrate specificity, electron acceptor and stoichiometry of purified yeast SADH; type: biochemical; conditions: examined spectrophotometrically
# [19] = tested on: Methylocystis parvus (CRL 18 PM4) NRRL B-11,204; assay: Oxidation by washed cell suspensions of methane-grown cells; type: cell-based; conditions: methane-grown cells; product 2-butanone
# Method: The pH of the nutrient medium was adjusted to 7.0 by the addition of acid or base and 50 ml samples of the nutrient medium were charged into a plurality of 300 ml shaker flasks. The shaker flasks were inoculated with an inoculating loop of cells from an agar plate containing homogeneous colonies of the microorganisms on the plate (the purity of the isolates was confirmed by microscopic examination. The isolates had been maintained on agar plates under an atmosphere of methane and air having a 1:1 v/v gas ratio which had been transferred evey two weeks. The gaseous phase of the inoculated flasks was then replaced with a gas mixture comprised of methane and air having a ratio of 1:1 on a v/v basis. The inoculated flasks were sealed air tight and were incubated on a rotary shaker of orbital radius 2.5 cm at 250 rpm and at 30° C. for two days until turbidity in the medium had developed.
# The cells were harvested by centrifugation at 10,000×g. at 4° C. for 30 minutes. The cell pellet was washed twice with a 0.15 M phosphate buffer at a pH of 7.0 (containing 0.002 M MgCl2). The washed cells were then suspended in a 0.15 M phosphate buffer at pH 7.0.
# A 0.5 ml sample of each washed cell suspension (2 mg cells) was put into 10 ml vials at 4° C. which were sealed with a rubber cap. The gaseous phase of the vials was removed with vacuum and then was replaced with a gas mixture of the oxidative substrate (e.g., methane) and oxygen at a 1:1 v/v ratio. The vials were then incubated at 30 ° C. on a rotary shaker at 300 rpm. Samples of product (3 μl) were withdrawn periodically with a microsyringe and the products were analyzed by gas chromatography (ionization flame detector column).
# The newly discovered and isolated microorganism strains of the present invention were each grown aerobically in the presence of methane in the manner described above. The methane-grown microbial cells were then washed, recovered and put to use in oxidizing an oxidative substrate by the procedure described above except in the case of a liquid substrate 10 μl of the substrate were used.
smiles,measurement,setting,value
CCCC(C)O (stereo not drawn) [2-Pentanol],Conversion Rate,[1],0.82 μmoles/hr/mg Protein
same,Conversion Rate,[2]; growth substrate Ethanol,1.0 μmoles/hr/mg of protein
same,Conversion Rate,[2]; growth substrate Methanol,1.2 μmoles/hr/mg of protein
same,Conversion Rate,[2]; growth substrate Methylamine,1.0 μmoles/hr/mg of protein
same,Conversion Rate,[2]; growth substrate Methylformate,1.2 μmoles/hr/mg of protein
same,Conversion Rate,[2]; growth substrate Propylamine,0.92 μmoles/hr/mg of protein
same,Conversion Rate,[3],1.0 μmoles/hr/mg Protein
same,Conversion Rate,[4]; growth substrate Ethanol,1.2 μmoles/hr/mg of protein
same,Conversion Rate,[4]; growth substrate Methanol,1.0 μmoles/hr/mg of protein
same,Conversion Rate,[4]; growth substrate Methylamine,0.9 μmoles/hr/mg of protein
same,Conversion Rate,[4]; growth substrate Methylformate,1.1 μmoles/hr/mg of protein
same,Conversion Rate,[4]; growth substrate Propylamine,0.62 μmoles/hr/mg of protein
same,Conversion Rate,[5],1.2 μmoles/hr/mg Protein
same,Conversion Rate,[6]; growth substrate Ethanol,1.1 μmoles/hr/mg of protein
same,Conversion Rate,[6]; growth substrate Methanol,1.4 μmoles/hr/mg of protein
same,Conversion Rate,[6]; growth substrate Methylamine,1.2 μmoles/hr/mg of protein
same,Conversion Rate,[6]; growth substrate Methylformate,1.3 μmoles/hr/mg of protein
same,Conversion Rate,[6]; growth substrate Propylamine,0.82 μmoles/hr/mg of protein
same,Conversion Rate,[7],1.2 μmoles/hr/mg Protein
same,Conversion Rate,[8]; growth substrate Ethanol,1.0 μmoles/hr/mg of protein
same,Conversion Rate,[8]; growth substrate Methanol,1.2 μmoles/hr/mg of protein
same,Conversion Rate,[8]; growth substrate Methylamine,0.72 μmoles/hr/mg of protein
same,Conversion Rate,[8]; growth substrate Methylformate,0.98 μmoles/hr/mg of protein
same,Conversion Rate,[8]; growth substrate Propylamine,0.60 μmoles/hr/mg of protein
same,Conversion Rate,[9]; growth substrate Ethanol,1.0 μmoles/hr/mg of protein
same,Conversion Rate,[9]; growth substrate Methanol,1.5 μmoles/hr/mg of protein
same,Conversion Rate,[9]; growth substrate Methylamine,1.2 μmoles/hr/mg of protein
same,Conversion Rate,[9]; growth substrate Methylformate,1.3 μmoles/hr/mg of protein
same,Conversion Rate,[9]; growth substrate Propylamine,0.9 μmoles/hr/mg of protein
same,Conversion Rates,[10],0.08 μmoles/hr/mg protein
same,Conversion Rates,[11],0.05 μmoles/hr/mg protein
same,Conversion Rates,[12],0.24 μmoles/hr/mg protein
same,Conversion Rates,[13],0.07 μmoles/hr/mg protein
same,Conversion Rates,[14],1.0 μmoles/hr/mg protein
same,Conversion Rates,[15],0.05 μmoles/hr/mg protein
same,Conversion Rates,[16],0.09 μmoles/hr/mg protein
same,Conversion Rate,[17],1.0 μmoles/hr/mg Protein
same,oxidation by the purified enzyme,[18],catalyzed the oxidation
CCC(C)=O [Butanone],Conversion Rate to Ketone,[19],1.0 μmoles/hr/mg Protein

# From patent publication US4347319A, “Microbiological epoxidation process” (priority 1980, dated 1982)
